Read-outs that look alike come from different tables or passages of the source.
Assays:
Format in all cases: cell-based, human
MV4;11 cells = experiment: Cell proliferation experiment (Alamar blue, 72 h), MV4;11; conditions: Homo sapiens
Procedure: (§1) Reagents: RPMI-1640 medium, McCoy's 5A medium, IMDM medium, MEM medium, L-15 medium, fetal bovine serum. Penicillin-Streptomycin double antibody, trypsin, etc., 2-mercaptoethanol, NEAA, pyruvate, etc.
(§2) The cells were cultured in conventional ways, and the cells should be passed at least 2 generations before plating. Cells at the logarithmic growth phase were collected, prepared into single cell suspensions and counted. The concentration of cells was adjusted to the desired concentration, and cells were inoculated into a 96-well cell culture plate at 100 μl per well. 100 μL of complete medium of the test compound were added to each well, set up 2 duplicate wells for each concentration, and diluted with a 5-fold gradient, and continued to culture for 72 h. All cells were subjected to IC50 test for corresponding samples. The experimental results are shown in Test Example 4.
(§3) The fluorescence intensity of each well was detected using the Alarm blue method, and IC50 was calculated.
(§4) IC50 was calculated according to the following formula:
(§5) Y=Max+(Min−Max)/[1+(X/IC50)×Slope]
(§6) wherein Min, Max and Slope represent the minimum, maximum and slope respectively.

Daudi cells = experiment: Cell proliferation experiment, Daudi; conditions: Homo sapiens, Daudi, Daudi cells; read-out: Inhibitory activity IC50 on Daudi
Procedure: as §1, §2, §3, §4, §5, §6

NCIH82 cells = experiment: Cell proliferation experiment, NCI-H82; conditions: Homo sapiens, NCI-H82, NCI-H82 cells; read-out: Inhibitory activity IC50 on NCI-H82
Procedure: as §1, §2, §3, §4, §5, §6

[1] = MV4-11, MV4;11 cells, read-out: Inhibitory activity IC50 on MV4;11

| Structure (SMILES) | IC50 (MV4;11 cells; MV4-11, 72 h, MV4;11 cells, 72 h, read-out: Inhibitory activity IC50 of tested compounds on MV4;11 cells) [µM] | IC50 (MV4;11 cells; [1]) [µM] | IC50 (Daudi cells) [µM] | IC50 (NCIH82 cells) [µM] |
| --- | --- | --- | --- | --- |
| O=C1CCC(N2Cc3c(C#CCNCCOCCOCCOCCNC(=O)[C@H]4CC[C@H](Oc5cccc(Cl)c5F)CC4Cc4cccc(Nc5nccs5)n4)cccc3C2=O)C(=O)N1 (some centres unmarked) [Compound 860] | > 1 |  |  |  |
| CC[C@@H]1C(=O)N(C)c2cnc(Nc3ccc(-c4cn(CCCOCCCNCCC#Cc5cccc6c5CN(C5CCC(=O)NC5=O)C6=O)nn4)cc3OC)nc2N1C1CCCC1 (some centres unmarked) [UB-180938] |  | 0.01 to 0.1 | 0.01 to 0.1 |  |
| O=C1CCC(N2Cc3c(NC(=O)CNCCOCCN4CCC(n5cc(-c6ccc(Nc7ncc8c(n7)-c7ccc(Cl)cc7C(c7c(F)cccc7F)=NC8)cc6)nn5)CC4)cccc3C2=O)C(=O)N1 (centres unmarked) [UB-180945] |  | 0.1 to 1 | > 1 | > 1 |
| O=C1CCC(N2Cc3c(C#CCCNCCCOCCCn4cc(-c5ccc(Nc6ncc7c(n6)-c6ccc(Cl)cc6C(c6c(F)cccc6F)=NC7)cc5)nn4)cccc3C2=O)C(=O)N1 (centres unmarked) [UB-180946] |  | 0.1 to 1 | > 1 | 0.1 to 1 |
| O=C1CCC(N2Cc3cc(NC(=O)CCOCCOCCOCCNC(=O)c4ccc(Nc5ncc6c(n5)-c5ccc(Cl)cc5C(c5c(F)cccc5F)=NC6)cc4)ccc3C2=O)C(=O)N1 (centres unmarked) [UB-180947] |  | 0.01 to 0.1 | 0.1 to 1 | > 1 |
| O=C1CCC(N2Cc3cc(NC(=O)CCOCCOCCOCCNC(=O)[C@]4(Cc5cccc(Nc6nccs6)n5)CC[C@@H](Oc5cccc(Cl)c5F)CC4)ccc3C2=O)C(=O)N1 (some centres unmarked) [UB-180948] |  | 0.01 to 0.1 | > 1 | > 1 |
| CCNC(=O)C=C(Cl)c1ccc2c(c1)NC(=O)/C2=C(\Nc1ccc(CNCCOCCOCCOCCOCCC(=O)Nc2cccc3c2CN(C2CCC(=O)NC2=O)C3=O)cc1)c1ccccc1 (centres unmarked) [UB-180952] |  | > 1 | > 1 | > 1 |
| O=C1CCC(N2Cc3cc(NC(=O)CNCCOCCOCCOCCNC(=O)[C@]4(Cc5cccc(Nc6nccs6)n5)CC[C@@H](Oc5cccc(Cl)c5F)CC4)ccc3C2=O)C(=O)N1 (some centres unmarked) [UB-180953] |  | 0.1 to 1 | > 1 | > 1 |
| CCNC(=O)C#Cc1ccc2c(c1)NC(=O)/C2=C(\Nc1ccc(CNCCOCCOCCOCCOCC(=O)N[C@H](C(=O)N2C[C@H](O)C[C@H]2C(=O)NCc2ccc(-c3scnc3C)cc2)C(C)(C)C)cc1)c1ccccc1 [UB-180958] |  | 0.1 to 1 | > 1 | > 1 |
| O=C1CCC(N2Cc3c(NC(=O)CCOCCOCCN[C@H]4CC[C@@H](NC(=O)c5ccc(Nc6ncc7c(n6)-c6ccc(Cl)cc6C(c6c(F)cccc6F)=NC7)cc5)CC4)cccc3C2=O)C(=O)N1 (some centres unmarked) [UB-180959] |  | 0.1 to 1 | > 1 | > 1 |
| CCNC(=O)C#Cc1ccc2c(c1)NC(=O)/C2=C(\Nc1ccc(CNCCOCCOCCOCCOCC(=O)Nc2cccc3c2CN(C2CCC(=O)NC2=O)C3=O)cc1)c1ccccc1 (centres unmarked) [UB-180962] |  | 0.1 to 1 | > 1 | > 1 |
| CCNC(=O)C#Cc1ccc2c(c1)NC(=O)/C2=C(\Nc1ccc(CNCCOCCOCCC(=O)Nc2cccc3c2CN(C2CCC(=O)NC2=O)C3=O)cc1)c1ccccc1 (centres unmarked) [UB-180964] |  | 0.1 to 1 | > 1 | > 1 |
| O=C1CCC(N2Cc3cc(C#CCCNCCOCCOCCOCCn4cc(-c5ccc(Nc6ncc7c(n6)-c6ccc(Cl)cc6C(c6c(F)cccc6F)=NC7)cc5)nn4)ccc3C2=O)C(=O)N1 (centres unmarked) [UB-180965] |  | 0.1 to 1 | > 1 | 0.1 to 1 |
| CC[C@@H]1C(=O)N(C)c2cnc(Nc3ccc(-c4nnc(C5CCC(NCCOCCC#Cc6cccc7c6CN(C6CCC(=O)NC6=O)C7=O)CC5)o4)cc3OC)nc2N1C1CCCC1 (some centres unmarked) [UB-180968] |  | < 0.01 | 0.1 to 1 |  |
| CC[C@@H]1C(=O)N(C)c2cnc(Nc3ccc(-c4cn(CCOCCOC[C@@H](N)CC#Cc5cccc6c5CN(C5CCC(=O)NC5=O)C6=O)nn4)cc3OC)nc2N1C1CCCC1 (some centres unmarked) [UB-180969] |  | 0.01 to 0.1 | 0.1 to 1 |  |
| CC[C@@H]1C(=O)N(C)c2cnc(Nc3ccc(C(=O)N[C@H]4CC[C@@H](NCCCCCC#Cc5ccc6c(c5)CN(C5CCC(=O)NC5=O)C6=O)CC4)cc3OC)nc2N1C1CCCC1 (some centres unmarked) [UB-180985] |  | < 0.01 | < 0.01 |  |

Now from value to molecule:

| IC50 (MV4;11 cells; MV4-11, 72 h, MV4;11 cells, 72 h, read-out: Inhibitory activity IC50 of tested compounds on MV4;11 cells) [µM] | IC50 (MV4;11 cells; [1]) [µM] | IC50 (Daudi cells) [µM] | IC50 (NCIH82 cells) [µM] | Structure (SMILES) |
| --- | --- | --- | --- | --- |
|  | 0.1 to 1 | > 1 | > 1 | O=C1CCC(N2Cc3c(C#CCCNCCOCCn4cc(-c5ccc(Nc6ncc7c(n6)-c6ccc(Cl)cc6C(c6c(F)cccc6F)=NC7)cc5)nn4)cccc3C2=O)C(=O)N1 (centres unmarked) [UB-180944] |
|  | 0.1 to 1 | > 1 | 0.1 to 1 | CCNC(=O)C#Cc1ccc2c(c1)NC(=O)/C2=C(\Nc1ccc(CNCCOCCOCCC(=O)N[C@H](C(=O)N2C[C@H](O)C[C@H]2C(=O)NCc2ccc(-c3scnc3C)cc2)C(C)(C)C)cc1)c1ccccc1 [UB-180951] |
|  | 0.1 to 1 | > 1 | > 1 | O=C1CCC(N2Cc3cc(NC(=O)CNCCOCCOCCOCCNC(=O)c4ccc(Nc5ncc6c(n5)-c5ccc(Cl)cc5C(c5c(F)cccc5F)=NC6)cc4)ccc3C2=O)C(=O)N1 (centres unmarked) [UB-180954] |
|  | 0.1 to 1 | > 1 | > 1 | CCNC(=O)C#Cc1ccc2c(c1)NC(=O)/C2=C(\Nc1ccc(CNCCOCCOCCOCCOCCC(=O)N[C@H](C(=O)N2C[C@H](O)C[C@H]2C(=O)NCc2ccc(-c3scnc3C)cc2)C(C)(C)C)cc1)c1ccccc1 [UB-180955] |
|  | 0.1 to 1 | > 1 | > 1 | CCNC(=O)C#Cc1ccc2c(c1)NC(=O)/C2=C(\Nc1ccc(CNCCOCCOCCOCCOCCC(=O)Nc2cccc3c2CN(C2CCC(=O)NC2=O)C3=O)cc1)c1ccccc1 (centres unmarked) [UB-180956] |
|  | 0.1 to 1 | > 1 | > 1 | O=C1CCC(N2Cc3cc(NC(=O)CCOCCOCCN[C@H]4CC[C@@H](NC(=O)c5ccc(Nc6ncc7c(n6)-c6ccc(Cl)cc6C(c6c(F)cccc6F)=NC7)cc5)CC4)ccc3C2=O)C(=O)N1 (some centres unmarked) [UB-180960] |
|  | 0.01 to 0.1 | > 1 | > 1 | CCNC(=O)C#Cc1ccc2c(c1)NC(=O)/C2=C(\Nc1ccc(CNCCOCCOCCOCCOCC(=O)Nc2ccc3c(c2)CN(C2CCC(=O)NC2=O)C3=O)cc1)c1ccccc1 (centres unmarked) [UB-180963] |
|  | > 1 | > 1 | > 1 | O=C1CCC(N2Cc3c(C#CCCOCCN[C@H]4CC[C@@H](n5cc(-c6ccc(Nc7ncc8c(n7)-c7ccc(Cl)cc7C(c7c(F)cccc7F)=NC8)cc6)nn5)CC4)cccc3C2=O)C(=O)N1 (some centres unmarked) [UB-180966] |
|  | 0.1 to 1 | 0.1 to 1 | > 1 | CCNC(=O)C#Cc1ccc2c(c1)NC(=O)/C2=C(\Nc1ccc(CNCCOCCOCCC(=O)Nc2ccc3c(c2)CN(C2CCC(=O)NC2=O)C3=O)cc1)c1ccccc1 (centres unmarked) [UB-180967] |
|  | 0.1 to 1 | > 1 | > 1 | CCNC(=O)C#Cc1ccc2c(c1)NC(=O)/C2=C(\Nc1ccc(CNCCOCCOCCOCCC(=O)N[C@H](C(=O)N2C[C@H](O)C[C@H]2C(=O)NCc2ccc(-c3scnc3C)cc2)C(C)(C)C)cc1)c1ccccc1 [UB-180970] |
|  | 0.1 to 1 | > 1 | > 1 | CCNC(=O)C#Cc1ccc2c(c1)NC(=O)/C2=C(\Nc1ccc(CNCCOCCOCCOCCC(=O)Nc2cccc3c2CN(C2CCC(=O)NC2=O)C3=O)cc1)c1ccccc1 (centres unmarked) [UB-180971] |
|  | < 0.01 | 0.01 to 0.1 |  | CC[C@@H]1C(=O)N(C)c2cnc(Nc3ccc(-c4cn([C@H]5CC[C@@H](NCCCCCC#Cc6ccc7c(c6)CN(C6CCC(=O)NC6=O)C7=O)CC5)nn4)cc3OC)nc2N1C1CCCC1 (some centres unmarked) [UB-180984] |
|  |  | 0.1 to 1 | 0.1 to 1 | NC(=O)c1ccccc1Nc1nc(Nc2ccc(C3CCN(C(=O)NCCCCNCCC#Cc4ccc5c(c4)CN(C4CCC(=O)NC4=O)C5=O)CC3)cc2)ncc1Cl (centres unmarked) [UB-181206] |
|  |  | > 1 | > 1 | NC(=O)c1ccccc1Nc1nc(Nc2ccc(C3CCN(C(=O)NCCCNCCCC#Cc4ccc5c(c4)CN(C4CCC(=O)NC4=O)C5=O)CC3)cc2)ncc1Cl (centres unmarked) [UB-181207] |
|  |  | 0.01 to 0.1 | 0.1 to 1 | NC(=O)c1ccccc1Nc1nc(Nc2ccc(N3CCN(C(=O)NCCCCNCCC#Cc4ccc5c(c4)CN(C4CCC(=O)NC4=O)C5=O)CC3)cc2)ncc1Cl (centres unmarked) [UB-181208] |

Source: patent publication US20230210999A1, “TARGETED PROTEASE DEGRADATION (TED) PLATFORM” (EUBULUS BIOTHERAPEUTICS INC., priority 2020, published 2023)
